{
  "source": "patent US20220160652A1",
  "about": "“USE OF VITAMIN K IN COMBINATION WITH ANTICOAGULANTS” (KAYDENCE PHARMA AS, priority 2019, published 2022)",
  "tested_on": "transgenic Ren-2 rats [TGR(mREN-2)27]",
  "assay": "T-TAS thrombus formation in whole blood of treated TGR (Ren-2) rats",
  "format": "in vivo, rat",
  "settings": "vitamin K2 (MK-7) added",
  "description": "This experiment was conducted in order to evaluate the effects of vitamin K2 (MK-7) on the anticoagulant activity of the new oral anticoagulants (NOAC) rivaroxaban and dabigatran using the T-TAS Total Thrombus-formation Analysis System. The T-TAS Total Thrombus-formation Analysis System is a microchip-based flow chamber system capable of evaluating whole-blood thrombogenicity. It is a useful tool in monitoring the efficacy of anticoagulants on thrombus formation and predicting the risk of bleeding complications. […] Four days before the start of the treatment, the first part of animals' body weight and food intake was measured in selected representative three cages (rats n=9) to calculate the appropriate amount of tested compounds required for addition to the diet to obtain the dosing indicated in Table 1. […] The body mass of the rats was measured at the beginning and at the end of treatment. At the beginning and at the end of treatment, the food intake per day was measured in representative group of animals to monitor the daily dosing of tested compounds (per kg of body mass). The thrombus formation in vitro was measured in whole blood using a microchip-based flow chamber system according to manufacturers' protocol (Total Thrombus-formation Analyser System, T-TAS; Fujimori Kogyo Co., Ltd., Tokyo, Japan). […]",
  "data": [
    {"smiles": "CC(C)=CCC/C(C)=C/CC/C(C)=C/CC/C(C)=C/CC/C(C)=C/CC/C(C)=C/CC/C(C)=C/CC1=C(C)C(=O)c2ccccc2C1=O", "note": "[vitamin K2 (MK-7)]", "values": [
      {"measurement": "modification of the thrombus formation inhibition by dabigatran and rivaroxaban", "result": "did not modify this effect significantly"}
    ]}
  ]
}
